Experimental findings from patent US20150157742A1, “[…] OF BIOLOGICAL COMPOUNDS LABELED WITH THE ALPHA EMITTER Ac-225” (priority 2013, published 2015) are described below.

The test concerns K422 lymphoma cells. Nature of the test: Saturation binding assay (Scatchard analysis) on K422 lymphoma cells. Conditions: Scatchard analysis (FIG. 3), read-out: binding affinity. The source says:
Vos: “In vitro and in vivo evaluation of direct rhenium-188-labeled anti-CD52 monoclonal antibody alemtuzumab for radioimmunotherapy of B-cell chronic lymphocytic leukemia.” (Nuclear Medicine and Biology 35 (2008) 599-604)].

Ac-225-DOTA-rituximab: the Kd was found to be 30 nM.
